US20050209106A1, “Substituted 4-(4-trifluoromethylpyrazolyl)pyrimidines” (Bayer CropScience GmbH, priority 2004, published 2005)

Key:
Type in all cases: in vivo
Amaranthus retroflexus [1] = assay: Herbicidal pre-emergence action against harmful plants; conditions: dosage of 1000 g and less than 1000 g of active substance per hectare, visual scoring after 3 to 4 weeks, greenhouse
Excerpt: (§1) 1. Herbicidal Pre-Emergence Action Against Harmful Plants
(§2) Seeds of mono- and dicotyledonous harmful plants are put in sandy loam in cardboard pots and covered with soil. The compounds according to the invention, which are formulated in the form of wettable powders or emulsion concentrates, are then applied to the surface of the soil cover as an aqueous suspension or emulsion at an application rate of 600 to 800 l/ha (converted) in various dosages. After the treatment, the pots are placed in a greenhouse and kept under good growth conditions for the weeds. Visual scoring of the plant damage or emergence damage is carried out after the test plants have emerged after a test period of 3 to 4 weeks in comparison with untreated controls.

Lolium multiflorum = assay: as above; conditions: dosage of 1000 g and less than 1000 g of active substance per hectare, visual scoring after 3 to 4 weeks, greenhouse
Excerpt: as §1, §2

Setaria viridis = assay: as above; conditions: dosage of 1000 g and less than 1000 g of active substance per hectare, visual scoring after 3 to 4 weeks, greenhouse
Excerpt: as §1, §2

Stellaria media [2] = assay: as above; conditions: dosage of 1000 g and less than 1000 g of active substance per hectare, visual scoring after 3 to 4 weeks, greenhouse
Excerpt: as §1, §2

Avena fatua = assay: Herbicidal post-emergence action against harmful plants; conditions: three-leaf stage, dosage of 1000 g and less than 1000 g of active substance per hectare, scored after 3 to 4 weeks, greenhouse
Description: (§3) 2. Herbicidal Post-Emergence Action Against Harmful Plants
(§4) Seeds of mono- and dicotyledonous harmful plants are put into sandy loam in cardboard pots, covered with soil and grown in the greenhouse under good growth conditions. Two to three weeks after sowing, the test plants are treated at the three-leaf stage. The compounds according to the invention, which are formulated as wettable powders or as emulsion concentrates, are sprayed onto the surface of the green plant parts in various dosages at a water application rate of 600 to 800 l/ha (converted). After the test plants have been left to stand in the greenhouse for 3 to 4 weeks under optimum growth conditions, the action of the compounds is scored.

Amaranthus retroflexus [3] = assay: as above; conditions: three-leaf stage, dosage of 1000 g and less than 1000 g of active substance per hectare, scored after 3 to 4 weeks, greenhouse
Description: as §3, §4

Sinapis arvensis = assay: as above; conditions: three-leaf stage, dosage of 1000 g and less than 1000 g of active substance per hectare, scored after 3 to 4 weeks, greenhouse
Description: as §3, §4

Stellaria media [4] = assay: as above; conditions: three-leaf stage, dosage of 1000 g and less than 1000 g of active substance per hectare, scored after 3 to 4 weeks, greenhouse
Description: as §3, §4

Cc1cc(-n2cc(C(F)(F)F)c(C)n2)nc(Oc2ccnc(C(F)(F)F)c2)n1 [1.14]
100%: action against Amaranthus retroflexus (Amaranthus retroflexus [1]) | action against Lolium multiflorum (Lolium multiflorum) | action against Setaria viridis (Setaria viridis) | action against Stellaria media (Stellaria media [2])

CCc1cc(-n2cc(C(F)(F)F)c(C)n2)nc(Oc2ccnc(C(F)(F)F)c2)n1 [1.26]
100%: action against Amaranthus retroflexus (Amaranthus retroflexus [1]) | action against Lolium multiflorum (Lolium multiflorum) | action against Setaria viridis (Setaria viridis) | action against Stellaria media (Stellaria media [2])

COc1cc(-n2ncc(C(F)(F)F)c2C)nc(Oc2ccnc(C(F)(F)F)c2)n1 [1.39]
100%: action against Amaranthus retroflexus (Amaranthus retroflexus [1]) | action against Lolium multiflorum (Lolium multiflorum) | action against Setaria viridis (Setaria viridis) | action against Stellaria media (Stellaria media [2])

COc1cc(-n2cc(C(F)(F)F)cn2)nc(Oc2ccnc(OC(F)F)c2)n1 [1.46]
100%: action against Avena fatua (Avena fatua) | action against Amaranthus retroflexus (Amaranthus retroflexus [3]) | action against Sinapis arvensis (Sinapis arvensis) | action against Stellaria media (Stellaria media [4]) | action against Amaranthus retroflexus (Amaranthus retroflexus [1]) | action against Lolium multiflorum (Lolium multiflorum) | action against Setaria viridis (Setaria viridis) | action against Stellaria media (Stellaria media [2])

Cc1cc(-n2cc(C(F)(F)F)cn2)nc(Oc2csc(C(F)(F)F)c2)n1 [7.13]
100%: action against Amaranthus retroflexus (Amaranthus retroflexus [1]) | action against Setaria viridis (Setaria viridis) | action against Stellaria media (Stellaria media [2])

Cc1cc(-n2cc(C(F)(F)F)cn2)nc(Oc2cc(C(F)(F)F)nn2C)n1 [9.13]
100%: action against Amaranthus retroflexus (Amaranthus retroflexus [1]) | action against Setaria viridis (Setaria viridis) | action against Stellaria media (Stellaria media [2])

Cc1cc(-n2cc(C(F)(F)F)c(C)n2)nc(Oc2cc(C(F)(F)F)nn2C)n1 [9.14]
100%: action against Amaranthus retroflexus (Amaranthus retroflexus [1]) | action against Setaria viridis (Setaria viridis) | action against Stellaria media (Stellaria media [2])

CCc1cc(-n2cc(C(F)(F)F)cn2)nc(Oc2cc(C(F)(F)F)nn2C)n1 [9.25]
100%: action against Avena fatua (Avena fatua) | action against Amaranthus retroflexus (Amaranthus retroflexus [3]) | action against Sinapis arvensis (Sinapis arvensis) | action against Stellaria media (Stellaria media [4])
